Measurements reported in the supplement of paper PMC8149375.

Key:
Conditions in all cases: treatment: drug alone; 5 days
UO-31 [1] = test: minimum viability across doses, drug alone, relative to DMSO (fraction); higher = less growth inhibition
Procedure: (§1)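 Primary HTS: 8 RCC cell lines treated with 8 doses (up to 10 uM) of each library drug alone for 5 days; viability read by CellTiter-Glo and normalised to DMSO. GI50 was fitted with XLfit (4-parameter), AUC is the area under the dose-response curve, and minimum viability is the lowest fraction of DMSO viability across doses.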

SN12C [2] = test: as above
Procedure: as §1

CAKI-1 [3] = test: as above
Procedure: as §1

769-P [4] = test: as above
Procedure: as §1

786-O [5] = test: as above
Procedure: as §1

A498 [6] = test: as above
Procedure: as §1

ACHN [7] = test: as above
Procedure: as §1

TK-10 [8] = test: as above
Procedure: as §1

UO-31 [9] = test: GI50, drug alone; higher = less potent
Procedure: as §1

SN12C [10] = test: GI50, drug alone; higher = less potent
Procedure: as §1

CAKI-1 [11] = test: GI50, drug alone; higher = less potent
Procedure: as §1

769-P [12] = test: GI50, drug alone; higher = less potent
Procedure: as §1

786-O [13] = test: GI50, drug alone; higher = less potent
Procedure: as §1

A498 [14] = test: GI50, drug alone; higher = less potent
Procedure: as §1

ACHN [15] = test: GI50, drug alone; higher = less potent
Procedure: as §1

TK-10 [16] = test: GI50, drug alone; higher = less potent
Procedure: as §1

UO-31 [17] = test: AUC of dose-response viability curve, drug alone (arbitrary (AUC of normalised viability)); higher = less growth inhibition
Procedure: as §1

SN12C [18] = test: as above
Procedure: as §1

CAKI-1 [19] = test: as above
Procedure: as §1

769-P [20] = test: as above
Procedure: as §1

786-O [21] = test: as above
Procedure: as §1

A498 [22] = test: as above
Procedure: as §1

ACHN [23] = test: as above
Procedure: as §1

TK-10 [24] = test: as above
Procedure: as §1

GI50, drug alone (786-O [13]) [nM]	GI50, drug alone (ACHN [15]) [nM]	Structure (SMILES)	minimum viability across doses (UO-31 [1])	minimum viability across doses (SN12C [2])	minimum viability across doses (CAKI-1 [3])	minimum viability across doses (769-P [4])	minimum viability across doses (786-O [5])	minimum viability across doses (A498 [6])	minimum viability across doses (ACHN [7])	minimum viability across doses (TK-10 [8])	GI50, drug alone (UO-31 [9]) [nM]	GI50, drug alone (SN12C [10]) [nM]	GI50, drug alone (CAKI-1 [11]) [nM]	GI50, drug alone (769-P [12]) [nM]	GI50, drug alone (A498 [14]) [nM]	GI50, drug alone (TK-10 [16]) [nM]	AUC of dose-response viability curve (UO-31 [17])	AUC of dose-response viability curve (SN12C [18])	AUC of dose-response viability curve (CAKI-1 [19])	AUC of dose-response viability curve (769-P [20])	AUC of dose-response viability curve (786-O [21])	AUC of dose-response viability curve (A498 [22])	AUC of dose-response viability curve (ACHN [23])	AUC of dose-response viability curve (TK-10 [24])
3.85	278	CO[C@H]1C[C@@H]2CC[C@@H](C)[C@@](O)(O2)C(=O)C(=O)N2CCCC[C@H]2C(=O)O[C@H]([C@H](C)C[C@@H]2CC[C@@H](OCCO)[C@H](OC)C2)CC(=O)[C@H](C)/C=C(\C)[C@@H](O)[C@@H](OC)C(=O)[C@H](C)C[C@H](C)/C=C/C=C/C=C/1C [Everolimus (RAD001)]	0.314	0.631	0.406	0.56	0.293	0.851	0.39	0.538	99.2	> 10000	1180	> 10000	> 10000	> 10000	1.96	2.56	2.14	2.37	1.21	3.45	1.85	2.3
36.9	70.7	CN1CC[C@H](c2c(O)cc(O)c3c(=O)cc(-c4ccccc4Cl)oc23)[C@H](O)C1.Cl [Flavopiridol hydrochloride]	0.0096	0.0105	0.0716	0.0149	0.00454	0.0135	0.00461	0.14	125	174	170	225	262	140	1.74	1.63	1.85	1.84	0.837	1.92	1.27	1.57
251	9240	CC(C)NC[C@@H](C(=O)N1CCN(c2ncnc3c2[C@H](C)C[C@H]3O)CC1)c1ccc(Cl)cc1 [GDC-0068]	0.0182	0.758	0.52	0.81	0.252	0.82	0.529	0.375	3090	> 10000	8110	> 10000	> 10000	2260	3.66	2.98	3.21	3.51	1.88	4.05	2.85	2.3
> 10000	> 10000	OCCn1cc(-c2ccc3c(c2)CC/C3=N\O)c(-c2ccncc2)n1 [GDC-0879]	1.18	0.999	0.98	0.92	0.716	1.05	0.745	0.937	> 10000	> 10000	> 10000	> 10000	> 10000	> 10000	5.03	3.81	4.13	3.52	2.97	4.12	3.54	3.5
1530	690	CS(=O)(=O)N1CCN(Cc2cc3nc(-c4cccc5[nH]ncc45)nc(N4CCOCC4)c3s2)CC1 [GDC-0941]	0.227	0.323	0.149	0.221	0.254	0.397	0.264	0.207	2660	1940	563	1540	6940	660	3.82	2.56	2.28	2.65	2.46	3.39	2.41	2.27
